# Patent US20090156657A1, “ANTI-INFLAMMATORY COMPOSITION” (Ajinomoto Co., Inc., priority 2006, published 2009)
# Experiments:
# [1] = IBD model mouse: body weight, ingested feed, water drunk; assay type: in vivo; details: IBD model mice
# Description: (§1) 4 days before IL-10 deficient cell transplantation, total 40 SCID mice (7-week-old, were divided into the following 4 groups 1) to 4) (10 mice in each group) and acclimation to a control diet was simultaneously started. Immediately after cell transfer, the feed was changed to the test diet shown in Table 4, and free ingestion was allowed for 3 weeks. The safflower seed extract powder was the same as that in Example 8, and contained 50 wt % of γ-cyclodextrin. N-Feruloylserotonin (FS) was synthesized according to the method of Experimental Example 1. During the test diet ingestion period, the body weight, the amount of ingested feed and the amount of water drunk were measured 3 times a week to monitor the onset of the disease.
# (§2) 1) Normal group (normal SCID mice×control diet) 2) Control group (IL-10 deficient cell-transplanted SCID mice×control diet) 3) SSE group (IL-10 deficient cell-transplanted SCID mice×SSE diet*) 4) FS group (IL-10 deficient cell-transplanted SCID mice×FS diet**) *containing FS and p-coumaroyl serotonin (CS) at 0.10 and 0.13 wt %, respectively (based on aglycone) (total serotonin derivative content=[…]) **containing 0.4 wt % of FS aglycone
# TNF-α mRNA = experiment: IBD model mouse: TNF-α mRNA in large intestine tissue (realtime PCR); assay type: in vivo; details: IBD model mice, vs Control group, GAPDH internal standard; FIG. 15
# Description: At the end of the test described in Example 10, the large intestine (caecum—anus) was cut into about 1 cm pieces from the center to the anus side to give 3 sections in total. One of them was fixed with 10% formalin solution and two were frozen in liquid nitrogen. The large intestine fixed with formalin was embedded in paraffin, and sliced to give transversely sectioned specimens. The specimens were stained by a PAS (Periodic acid Schiff) staining method, and histopathological images were observed. On the other hand, total RNA was extracted from the frozen large intestine tissue with ISOGEN (NIPPON GENE CO., LTD.) Total RNA (2 μg) was subjected to a reverse transcription reaction using a SYBR ExScript™ RT-PCR kit (TaKaRa) and, using this as a template, quantitative realtime PCR was performed using IL-1β, TNF-α and GAPDH. The primers used for the analysis were as follows.
# Template DNA (2 μl), SYBR Premix Ex Taq™ (TaKaRa, 10 μl), ROX Reference Dye (0.4 μl), 100 μM forward primer (0.04 μl), 100 μM reverse primer (0.04 μl) and sterile water (7.52 μl) were mixed on ice and, using Applied Biosystems 7900HT Fast realtime PCR system, the mixture was heated at 95° C. for 10 seconds, followed by 40 cycles of 95° C., 5 seconds and 60° C., 34 seconds, whereby the DNA was amplified. Using GAPDH as the internal standard, IL-1β and TNF-α expression levels were evaluated.
# VCAM-1 mRNA = VCAM-1 mRNA expression in HAEC by real-time PCR; assay type: cell-based, human; details: 10 μM 24 h, 25 mM glucose 3 h, GAPDH internal standard, FIG. 3A
# Method: HAEC cells pre-treated with 10 μM of CS or FS for 24 hours were stimulated with 25 mM glucose for 3 hours, and total RNA was extracted with Isogenkit (NIPPON GENE CO., LTD.). From 1 μg of RNA, cDNA was synthesized using 100 U/mL of reverse transcriptase (TAKARA BIO INC.) and 0.1 μM of oligo (dT)-adapter (TAKARA BIO INC.) (total volume of reaction mixture; 50 μL) (42° C., 40 minutes). Real-time PCR was performed using 7300 Real Time PCR system (Applied Biosystems Japan Ltd.) and the PCR product was detected by SYBER Green I.
# PCR reaction composition (RT-PCRkit, TAKARA BIO INC.): 12.5 μL Premix Ex Taq, 2.5 μL SYBER Green I, synthesis primer, ROX reference dye, cDNA (corresponding to 20 ng of total RNA), final reaction volume; 25 μL
# Primers having the following sequences were used.
# PCR was conducted under the following conditions.
# thermal denaturation: at 95° C. for 15 seconds, extension reaction: 40 cycles (3 seconds at 95° C., 31 seconds at 60° C.)
# Expression amounts of VCAM-1 and MCP-1 mRNA were calculated using GAPDH as the internal standard.
# [2] = tested on: IBD model mice (IL-10 deficient cell-transplanted SCID mice); experiment: Inflammatory bowel disease (IBD) model mouse: large intestine and blood cell counts; assay type: in vivo; details: diet 3 weeks, vs Control group
# Description: Immunopharmacol., 5, 993-1006 (2005)).
# as §1, §2
# After the completion of the test diet ingestion period, blood samples were collected under anesthesia, and the length of the isolated large intestine (appendix—anus) and the weight thereof (after washing the contents) were measured. Using the obtained data, t-test was first conducted between the Normal group and the Control group and, after confirmation of the effectiveness of the test, variance analyses were performed between the Control group and each of SSE and FS groups, and the effect of the test substance was compared by Dunnett-test.
# NF-κB (p65) = experiment: Activation of NF-κB (nuclear translocation of p65) in HAEC stimulated with high glucose; assay type: cell-based, human; details: pre-treatment 5 and 10 μM 24 h, 25 mM glucose 2 h, FIG. 1
# Method: In the present invention, the term “suppression of NF-κB activation” means suppression of the translocation of NF-κB into the nucleus. The suppression of the translocation of NF-κB into the nucleus can be confirmed by the method described in Example 1. To be specific, a test substance is added to a culture medium of human aortic endothelial cells, the cells are incubated for a predetermined time, the nucleus is extracted from the aforementioned cells stimulated with glucose, and activated NF-κB (p65) translocated into the nucleus is detected. Using the cells before glucose stimulation, wherein NF-κB is not activated, as a negative control and the cells stimulated with glucose and free of addition of a test substance as a positive control, when the detection level of the aforementioned p65 is closer to the negative control than to the positive control, NF-κB activation is evaluated to have been suppressed.
# Human aortic endothelial cells (HAEC) were purchased from Clonetics Corp, and the cells cultured for 3-4 passages (37° C., under 5% carbon dioxide gas atmosphere) were used for the experiment. […] Nucleus was extracted from the cells using Nuclear Extract Kit (Active Motif), and then the activated NF-κB (p65) translocated into the nucleus was detected by TransAM NF-κB p65 Kit (Active Motif).
structure (smiles),measurement,setting,value
"COc1cc(/C=C/C(=O)NCCc2c[nH]c3ccc(O)cc23)ccc1O [FS, N-feruloyl serotonin]",body weight change rate (day 0 = 100),"[1]; day 21 vs day 0, mean ± SEM",112.5 ± 1.2
same,"body weight, completion of test diet ingestion (day 21)",[1]; mean ± SEM,20.6 ± 0.4 g
same,"body weight, start of test diet ingestion (day 0)","[1]; mean ± SEM, baseline",18.3 ± 0.3 g
same,mRNA expression level of TNF-α in large intestine tissue,TNF-α mRNA,tendency toward decrease
same,expression amount of VCAM-1 mRNA,VCAM-1 mRNA,significantly suppressed the increase
same,large intestine weight,[2]; FIG. 11B,significantly lower values
same,large intestine weight per unit intestine length,[2]; FIG. 11C,significantly lower values
same,platelet count,[2]; FIG. 12B,significantly lower
same,leukocyte count,"[2]; not statistically significant, FIG. 12A",tendency toward lower values
same,neutrophil count,"[2]; not statistically significant, FIG. 12C",tendency toward lower values
same,monocyte count,"[2]; not statistically significant, FIG. 12D",tendency toward lower values
same,nuclear translocation of p65 (activation of NF-κB),NF-κB (p65),significantly suppressed
